For data set [1], the system named is cyclin D1 and E expression. Kind of data set: Cyclin expression and cell cycle in vitro. Format: cell-based.
A further data set concerns 3T3. Kind of data set: SRB antiproliferative assay. Format: cell-based. As to conditions: NIH3T3, 3T3 (Normal mouse), 5% FCS/5 day incubation. An excerpt: (§1) The cells were passaged using Trypsin (Gibco).
(In general: Sulforhodamine B stains cellular protein and so reports cell mass.)

Another data set deals with HUVEC. Kind of data set: SRB antiproliferative assay. As to conditions: HUVEC (Normal human), 5% FCS/5 day incubation. Format: cell-based.
Description: as §1

The subject of another data set is SK-MEL-28. Briefly: SRB antiproliferative assay. It counts as cell-based. As to conditions: Homo sapiens, SK-MEL-28 (Melanoma), 5% FCS/5 day incubation.
Description: as §1

The subject of the next data set is GM. Briefly: SRB antiproliferative assay. Format: cell-based. As to conditions: GM (Normal human), 5% FCS/5 day incubation.
Description: as §1

For a further data set, the system named is CaSki. Briefly: SRB antiproliferative assay. Format: cell-based. As to conditions: Homo sapiens, Ca-Ski, CaSki (Cervical), 5% FCS/5 day incubation.
Description: as §1

For another data set, the system named is L929. Kind of data set: SRB antiproliferative assay. It counts as cell-based. As to conditions: L929 (Normal mouse), 5% FCS/5 day incubation.
Description: as §1

For a further data set, the system named is DU-145. Briefly: SRB antiproliferative assay. It counts as cell-based. As to conditions: Homo sapiens, DU-145 (Prostate), 5% FCS/5 day incubation.
Description: as §1

Another data set has as its system ACHN. Kind of data set: SRB antiproliferative assay. It counts as cell-based. As to conditions: Homo sapiens, ACHN (Renal), 5% FCS/5 day incubation.
Description: as §1

The test system of a further data set is SK-OV-3. Kind of data set: SRB antiproliferative assay. Format: cell-based. As to conditions: Homo sapiens, SK-OV-3 (Ovary), 5% FCS/5 day incubation.
Description: as §1

The next data set has as its system HCT-15. Kind of data set: SRB antiproliferative assay. It counts as cell-based. As to conditions: Homo sapiens, HCT-15 (Colon), 5% FCS/5 day incubation.
Description: as §1

A further data set deals with HTB174. Briefly: SRB antiproliferative assay. Format: cell-based. As to conditions: Homo sapiens, HTB174 (Lung), 5% FCS/5 day incubation.
Description: as §1

Data set [2] relates to dominant negative PKR mutant cells. Briefly: Growth of dominant negative PKR mutant cells. As to conditions: FIG. 12. Format: cell-based.
Data set [3] can be described thus: Preliminary toxicity studies in mice and rats. Format: in vivo.
Data set [4] concerns human melanoma MM-RU cells. Kind of data set: Lung metastases in MM-RU tumor-bearing mice. Format: in vivo, nude mice.
Another data set concerns HCC-2998. Briefly: In-Vitro Testing SRB panel: Colon Cancer. It counts as cell-based. An excerpt: The dose-response curve page of the data package is created by plotting the PGs against the log10 of the corresponding concentration for every cell line. The cell line curves are grouped by subpanel. Horizontal lines are provided at the PG values of […]. The concentrations corresponding to points where the curves cross these lines are the GI50, TGI, and LC50, respectively.

Where [5] appears, read: administered intraperitoneally, orally or subcutaneously.
Setting [6] is: MM-RU tumor-bearing mice, 80 mg/kg/d × 5/w × 3 s.c.
Setting [7] is: MM-RU tumor-bearing mice, 100 mg/kg/d × 28, p.o.

The structures appear in SMILES notation.

Two compounds from patent US6992079B2, “Substituted 11-phenyl-dibenzazepine compounds useful for the treatment or prevention of diseases characterized by abnormal cell proliferation” (President Fellows of Harvard College, priority 1997, dated 2006) can be followed below.

One may read the IC50 as the concentration needed to halve the response being measured. Low readings indicate inhibition by little substance, high ones a need for much substance. Take `O=C(c1ccc([N+](=O)[O-])cc1)N1Cc2ccccc2C(c2ccccc2Cl)c2ccccc21` (centres unmarked) [Compound 28, N-(4′-Nitrobenzoyl)-11-(2′-chlorophenyl)-5,6-dihydro-11H-dibenz[b,e]azepine]: the cell cycle arrest result in [1] was “induction of G0-G1 cell cycle arrest”. In addition, the “cyclin D1 and E expression” value in data set [1] was “inhibit cyclin D1 and E expression”. Also, the half-inhibitory concentration (IC50) is above 1 µM with 3T3; 0.7 µM with HUVEC; 0.4 µM with SK-MEL-28; 0.9 µM in the data set with GM; 0.5 µM in the data set with CaSki; 0.6 µM in the data set on L929. Besides, the IC50 with DU-145 is 0.9 µM; with ACHN, 0.7 µM; with SK-OV-3, above 1 µM; in the data set on HCT-15 it was 0.4 µM; in the data set on HTB174, 0.1 µM. Besides, the “resistance of dominant negative PKR mutant cells to compound” value in data set [2] is “resistance of dominant negative PKR mutant cells”. Moreover, in data set [3] (setting [5]), the body weight losses entry is “did not cause significant body weight losses”. The “gross observations of brain, heart, lungs, liver, spleen, kidney and gastrointestinal tract” value in data set [3] (setting [5]) is given as “no abnormalities were detected”. For the same compound, in [3] (mice and rats), the systemic toxicity result was “no obvious systemic toxicity”. In addition, the “Body Wt. Change” value in data set [4] (setting [6]) came out at 107%; in data set [4] (setting [7]) it was 105%. The “Liver Wt.” value in [4] (setting [6]) was 0.97 ± 0.12 gram; in data set [4] (setting [7]) it was 1.00 ± 0.09 gram. The “Lung Metastases” value in data set [4] (setting [6]) was 46 ± 12; in [4] (setting [7]), 45 ± 10; in data set [4] (nude mice, MM-RU cells, oral administration or subcutaneous injection) it was “lung metastases were significantly reduced”.

As a reminder, the GI50 is the concentration giving 50% growth inhibition. A low value points to more potent growth inhibition. In the data set on HCC-2998 (HCC-2998), `COc1cccc2c1C(c1ccccc1Cl)c1cc(Cl)ccc1N(C(=O)c1ccc([N+](=O)[O-])cc1)C2` (centres unmarked) [Compound 31] displayed a TGI above 1.00E−04 Molar. For the same compound, the “Percent Growth” value turned out to be 33% with HCC-2998 (HCC-2998, log10 conc -4 Molar); 45% with HCC-2998 (HCC-2998, log10 conc -5 Molar); 59% in the data set with HCC-2998 (HCC-2998, log10 conc -6 Molar); 93% in the data set with HCC-2998 (HCC-2998, log10 conc -7 Molar); 104% in the data set on HCC-2998 (HCC-2998, log10 conc -8 Molar). The compound also returned a GI50 with HCC-2998 (Homo sapiens, HCC 2998) of 4.34 µM. Further, the CC50 in the data set on HCC-2998 (Homo sapiens, HCC-2998, read-out: LC50 (the source's name)) is above 100 µM.
